Here are results for three molecules from ChEMBL document CHEMBL3867467, “Discovery of indazole ethers as novel, potent, non-steroidal glucocorticoid receptor modulators” (Bioorg Med Chem Lett, 2016).

Usually fraction unbound stands for the share of the substance not bound to proteins or other matrix. Higher therefore signals weak binding. The Vd is a proportionality between amount in the body and measured concentration, not a real space. A high value points to extensive tissue distribution. By bioavailability is commonly meant dose-corrected exposure relative to a reference, in per cent. Read a low bioavailability as poor availability. By clearance is commonly meant the rate of elimination divided by the concentration. Low values mean a low capacity for elimination, high ones a high capacity for elimination. One may read the AUC(0-inf) as the area under the concentration-time curve extrapolated to infinity. By half-life is commonly meant how long it takes for the measured level to halve. Read a low half-life as rapid decline. What is called AUC is the area under the concentration-time curve, a measure of exposure. A higher AUC goes with more exposure.

A short description of data set [1]: in vitro. The note with it: rat, plasma.
Description: Fraction unbound in rat plasma at 10 uM
A short description of data set [2]: in vivo. The note with it: Wistar, rat, iv, 1 umol/kg.
Description: Volume of distribution at steady state in Wistar rat at 1 umol/kg, iv through bolus administration by LC/MS/MS analysis
Data set [3] is described as follows: in vivo. To be noted: Wistar, rat, po, 10 umol/kg.
A short description of data set [4]: in vivo. To be noted: Wistar, rat, iv, 1 umol/kg. The source holds these as a separate data set.
Description: Clearance in Wistar rat at 1 umol/kg, iv through bolus administration by LC/MS/MS analysis
Data set [5] can be described thus: in vivo. To be noted: Wistar, rat, po, 10 umol/kg. This is another data set of the same source.
Data set [6] in a line: in vivo. To be noted: Wistar, rat, iv, 1 umol/kg. This is another data set of the same source.
A short description of data set [7]: in vivo. The note with it: Lewis, rat, po.
Description: AUC in Lewis rat model of SCW-induced joint inflammation at anti-inflammatory ED50 administered via oral gavage once daily for 8 days measured 24 hrs post last dose on day 8 by LC/MS/MS analysis
A short description of data set [8]: in vitro. The note with it: human, plasma.
Description: Fraction unbound in human plasma at 10 uM
Data set [9] can be described thus: Intrinsic clearance in rat hepatocytes assessed per million cells. Format: ADME, cell-based, Hepatocyte. The note with it: read-out: CLH.

On to `C[C@H](NC(=O)C(F)(F)F)[C@H](Oc1ccc2c(cnn2-c2ccc(F)cc2)c1)c1ccccc1`, for which the fraction unbound at 10 µM in data set [1] stood at 0.00011; in data set [8], 0.0001. In addition, the Vd in data set [2] was determined as 14 L/kg. The molecule further came in with a bioavailability in data set [3] of 53%. In [4], the clearance was 19 mL/min/kg. This molecule displayed an AUC(0-inf) in data set [5] of 7.1 µM·h. This molecule showed a half-life in [6] of 11 h. The molecule also yielded an AUC in data set [7] of 0.08 µM·h.

Turning to `COc1ccc([C@@H](Oc2ccc3c(cnn3-c3ccc(F)cc3)c2)[C@H](C)NC(=O)C2CC2)cn1`, the fraction unbound at 10 µM in data set [1] was 0.0063; in data set [8], 0.0015. Moreover, the Vd in data set [2] came to 15 L/kg. Further, the bioavailability in data set [3] was found to be 66%. Also, in data set [4], the clearance came out at 28 mL/min/kg. In [5], this molecule came in with an area under the curve AUC(0-inf) of 5.9 µM·h. This molecule also registered an AUC in [7] of 0.035 µM·h.

In the case of `C[C@]12C=CC(=O)C=C1CC[C@@H]1[C@@H]2[C@@H](O)C[C@@]2(C)[C@H]1CC[C@]2(O)C(=O)CO` [PREDNISOLONE], in data set [9], the hepatocyte CLint worked out at 27 µL/min/1e6 cells. For the same molecule, the fraction unbound at 10 µM in [1] was 0.31; in data set [8], over 0.41. The molecule further gave a Vd in data set [2] of 0.63 L/kg. Also, the clearance in [4] is 54 mL/min/kg. The AUC(0-inf) in [5] amounted to 0.35 µM·h. Also, the half-life in data set [6] was 0.27 h. Also, in [7], the AUC came out at 0.59 µM·h.
